{"source": "patent US20060165717A1", "about": "(priority 2005, published 2006)", "test_system": "Balb/c mice", "assay": "Immunization of mice with detoxified TAT vaccine compositions; TAT-specific IgG by ELISA", "assay_type": "in vivo", "settings": "2 subcutaneous injections D0, D21, 1 μg TAT antigen", "experimental": "Vaccine compositions comprising, as antigen, a detoxified TAT III B protein are prepared. The TAT protein was detoxified by means of an alkylation reaction in an alkaline medium using iodoacetamide under the following conditions: number of micromoles of iodoacetamide=200×number of micromoles of TAT+number of micromoles of DTT. This detoxified protein and the method for preparing it are described in detail in application WO 99/33346, where it is identified under the term “carboxymethylated TAT”.\nImmunizing doses having the following composition are the obtained:\nAdult Balb/c mice and 1-week-old “newborn” Balb/c mice are provided and are divided up into groups of 6 to 8 (groups of young mice) or of 5 to 6 (groups of adult mice). Experiments are carried out with 2 subcutaneous injections of the same vaccine formulation at D0 and at D21. Blood samples are taken after the booster injection. The TAT-specific immunoglobulins are assayed by the ELISA technique. A total of 10 to 40 mice per formulation was tested in several independent experiments: for the DC-Chol: 27 adults, 38 newborns; for the aluminum oxyhydroxide: 18 adults, 22 newborns; for the emulsion: 10 adults and 16 newborns; and in saline solution: 10 adults and 15 newborns. […]"}
{"substance": "3β-[N-(N′,N′-dimethyl-aminoethane)carbamoyl]cholesterol [DCchol]", "values": [{"measurement": "adjuvant effect on TAT-specific total IgG response (FIG. 1), in words", "setting": "adult Balb/c mice", "result": "capable of increasing the immune response"}, {"measurement": "adjuvant effect on TAT-specific total IgG response (FIG. 1), in words", "setting": "newborn (1-week-old) Balb/c mice", "result": "capable of increasing the immune response"}]}
